# The source made the active and inactive calls.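 How the source made its calls: active means compounds that cut viability of the normal-p53 cell line panel with an IC50 under 10 µM; inactive means IC50 above 10 µM.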
# Columns and labels:
# Assay in all cases: cell killing across TP53 wild-type lines, dose response, selectivity assay for cell-selective anticancer agent project, TP53 wild-type panel, dry powder (AID 743141)
# [1] = tested on: A549 viability, CellTiter-Glo luminescence, 48 h
# [2] = tested on: HCT116 viability, CellTiter-Glo luminescence, 48 h
# [3] = tested on: IMR90 viability, CellTiter-Glo luminescence, 48 h
SMILES,IC50 [1],IC50 [2] [µM],IC50 [3] [µM]
CC(=O)Nc1ccc(C2=NNC(=O)C[C@H]2C)cc1,> 10 µM (inactive),> 10,> 10
O=C1CN2Cc3c(ccc(Cl)c3Cl)N=C2N1,> 10 µM (inactive),> 10,> 10
C[C@@H]1CC(=O)NN=C1c1ccc(C2CCCCC2)cc1,> 10 µM (inactive),> 10,> 10
C[C@@H]1CC(=O)NN=C1c1ccc(Cl)cc1,> 10 µM (inactive),> 10,> 10
C[C@@H]1CC(=O)NN=C1c1ccc(-c2cncnc2)cc1,> 10 µM (inactive),> 10,> 10
CCN(CC)c1ccc(C2=NNC(=O)CC2C)cc1[N+](=O)[O-] (stereo unspecified),> 10 µM (inactive),> 10,> 10
C[C@@H]1CC(=O)NN=C1c1ccc(F)c(F)c1,> 10 µM (inactive),> 10,> 10
COc1cc2c(cc1OC)-c1cc(=Nc3c(C)cc(C)cc3C)n(C)c(=O)n1CC2,> 10 µM (inactive),> 10,> 10
C[C@@H]1CC(=O)NN=C1c1ccc(N2CCOCC2)c(F)c1,> 10 µM (inactive),> 10,> 10
C[C@@H]1CC(=O)NN=C1c1ccc(N2CCOCC2)cc1,> 10 µM (inactive),> 10,> 10
CCN1N=C(c2ccc(N(CC)CC)cc2)[C@H](C)CC1=O,> 10 µM (inactive),> 10,> 10
C[C@H]1CC(=O)NN=C1c1ccc(N2CCOCC2)c(F)c1,> 10 µM (inactive),> 10,> 10
